Columns and labels:
[1] = target: T1, human wildtype CFTR (Homo sapiens, UniProt P13569); experiment: Short-circuit (apical membrane) chloride current in CFTR-expressing FRT cells, basolateral membrane permeabilized; format: cell-based
T1 construct: expressed in transfected cells; host or cells: Fischer rat thyroid (FRT) cells
Experimental: C. Short-Circuit Current Measurements—Snapwell inserts containing CFTR-expressing FRT cells (stably expressing human wildtype CFTR), T84 cells, or human bronchial epithelial cells were mounted in Ussing chambers. For FRT cells the hemichambers were filled with 5 mL of 75 mM NaCl and 75 mM Na gluconate (apical), and 150 mM NaCl (basolateral) (pH 7.3), and the basolateral membrane was permeabilized with 250 μg/mL amphotericin B. For bronchial epithelial cells and T84 cells, both hemichambers contained a Krebs-bicarbonate solution. Hemichambers were continuously bubbled with air (FRT cells) or 5% CO2 in air (bronchial and T84 cells) and maintained at 37° C. Short-circuit current was recorded continuously using a DVC-1000 voltage clamp (World Precision Instruments, Sarasota, Fla.) using Ag/AgCl electrodes and 3 M KCl agar bridges.
Short circuit current analysis was performed as described in Example 2. […] Measurements were taken in the presence of a transepithelial chloride gradient and following basolateral membrane permeabilization with amphotericin B so that measured current is a direct, quantitative measure of CFTR chloride conductance.

[2] = test system: renal cysts in E13.5 embryonic kidneys; experiment: Embryonic kidney organ culture model of PKD (8-Br-cAMP-induced cysts); format: cell-based, mouse
Experimental: E. Embryonic Organ Culture Model of PKD—Mouse embryos were obtained at embryonic day 13.5 (E13.5). Metanephroi were dissected and placed on transparent Falcon […] diameter porous cell culture inserts as described (see, e.g., Sonawane et al., Chem. Biol. 15:718-728 (2008)). To the culture inserts was added DMEM/Ham's F-12 nutrient medium supplemented with 2 mM L-glutamine, 10 mM HEPES, 5 μg/mL insulin, 5 μg/mL transferrin, 2.8 nM selenium, 25 ng/ml prostaglandin E, 32 pg/ml T3, 250 U/ml penicillin and 250 μg/ml streptomycin. Kidneys were maintained in a 37° C. humidified CO2 incubator for up to 8 days. Culture medium containing 100 μM 8-Br-cAMP, with or without CFTR inhibitor, was replaced (in the lower chamber) every 12 h. In some studies CFTR inhibitor was added at 3 days after 8-Br-cAMP to test its efficacy in reversing pre-formed cysts. Kidneys were photographed using a Nikon inverted microscope (Nikon TE 2000-S) equipped with 2× objective lens, 520 nm bandpass filter, and high-resolution CCD camera. Percentage cyst area was calculated as total cyst area divided by total kidney area.
Kidneys were removed from day 13.5 embryonic mice and maintained in organ culture where they continue to grow. […] Multiple cysts did form and progressively enlarged when the culture medium was supplemented with the CFTR agonist 8-Br-cAMP (see FIG. 5A, left). […] In agreement with the transmission light micrographs of intact kidneys, PPQ-102 reduced cyst size.

[3] = target: CFTR (Homo sapiens, UniProt P13569); experiment: Short-circuit current in non-permeabilized T84 and human bronchial epithelial cells; format: cell-based; parameters: endogenous in cells; host or cells: T84 human intestinal epithelial cells; primary human bronchial epithelial cells; conditions: forskolin and IBMX, read-out: IC50 for CFTR inhibition
Sequence of CFTR (P13569 whole entry): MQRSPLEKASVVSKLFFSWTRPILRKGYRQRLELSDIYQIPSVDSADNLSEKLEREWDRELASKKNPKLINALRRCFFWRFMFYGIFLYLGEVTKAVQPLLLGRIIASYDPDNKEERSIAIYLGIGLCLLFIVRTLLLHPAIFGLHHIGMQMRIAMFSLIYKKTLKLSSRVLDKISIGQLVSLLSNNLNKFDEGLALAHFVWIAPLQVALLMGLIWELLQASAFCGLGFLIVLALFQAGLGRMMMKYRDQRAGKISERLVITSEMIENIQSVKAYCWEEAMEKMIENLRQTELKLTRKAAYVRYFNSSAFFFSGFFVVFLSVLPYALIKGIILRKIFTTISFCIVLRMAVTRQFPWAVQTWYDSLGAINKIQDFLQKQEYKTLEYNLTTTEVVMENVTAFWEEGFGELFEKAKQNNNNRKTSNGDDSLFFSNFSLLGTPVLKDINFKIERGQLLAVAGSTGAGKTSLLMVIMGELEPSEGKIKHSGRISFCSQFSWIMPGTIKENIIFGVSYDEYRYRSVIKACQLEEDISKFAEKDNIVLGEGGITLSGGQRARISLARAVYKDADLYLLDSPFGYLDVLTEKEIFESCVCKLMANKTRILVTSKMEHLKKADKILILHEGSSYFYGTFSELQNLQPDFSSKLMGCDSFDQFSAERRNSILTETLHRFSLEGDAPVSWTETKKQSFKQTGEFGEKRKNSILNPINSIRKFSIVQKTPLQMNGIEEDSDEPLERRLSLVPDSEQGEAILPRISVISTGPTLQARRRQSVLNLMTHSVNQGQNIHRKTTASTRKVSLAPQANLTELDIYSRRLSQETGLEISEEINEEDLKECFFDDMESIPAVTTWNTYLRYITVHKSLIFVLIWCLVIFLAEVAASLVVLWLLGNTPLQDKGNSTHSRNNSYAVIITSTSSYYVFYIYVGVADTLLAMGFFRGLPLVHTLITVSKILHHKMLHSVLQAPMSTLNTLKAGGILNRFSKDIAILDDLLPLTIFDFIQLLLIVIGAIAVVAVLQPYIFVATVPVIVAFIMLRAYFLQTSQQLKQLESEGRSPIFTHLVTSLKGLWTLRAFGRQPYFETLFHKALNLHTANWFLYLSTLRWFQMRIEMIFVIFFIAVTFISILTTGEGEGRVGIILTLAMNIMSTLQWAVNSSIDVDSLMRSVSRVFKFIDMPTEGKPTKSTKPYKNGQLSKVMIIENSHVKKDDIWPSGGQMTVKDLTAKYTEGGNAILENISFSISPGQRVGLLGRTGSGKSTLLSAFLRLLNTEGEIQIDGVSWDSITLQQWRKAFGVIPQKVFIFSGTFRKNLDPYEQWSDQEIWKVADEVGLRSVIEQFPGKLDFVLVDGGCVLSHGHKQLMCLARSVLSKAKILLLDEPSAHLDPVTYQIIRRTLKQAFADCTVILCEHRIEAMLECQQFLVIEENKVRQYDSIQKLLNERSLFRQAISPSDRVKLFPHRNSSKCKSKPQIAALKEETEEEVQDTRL

T1 sequence (P13569 whole entry): as above

For `Cc1ccc(C2Nc3ccccc3-n3c(-c4ccccc4)c4c(=O)n(C)c(=O)n(C)c4c32)o1` (racemic) [PPQ-102, 7,9-Dimethyl-11-phenyl-6-(5-methylfuran-2-yl)-5,6-dihydro-pyrimido[4′,5′-3,4]pyrrolo[1,2-a]quinoxaline-8,10-(7H,9H)-dione], the reversibility of inhibition ([1]; 30 min incubation with 2 μM, then 10 min washout) was “complete restoration of CFTR chloride current”, the IC50 ([1]; CFTR stimulated by CPT-cAMP, transepithelial chloride gradient, amphotericin B, read-out: IC50 for inhibition of CFTR chloride conductance) was about 90 nM and the “inhibition of CFTR at higher concentrations” value ([1]; CPT-cAMP stimulation, higher concentrations) was “approximately 100%”. For the same compound, the “potency with apigenin or IBMX as agonist compared to CPT-cAMP” value ([1]; apigenin (100 μM) or IBMX (100 μM) as agonists) was “mildly reduced”, the “reversibility of cyst inhibition” value ([2]; 2.5 μM removed after 3 days, 8-Br-cAMP continued) was “reversible” and the “effect on pre-formed cysts” value ([2]; 5 μM added at day 3 of 8-Br-cAMP, over 1 and 2 days) was “reduction in cyst size”. The “cysts at 2.5 and 5 μM” value ([2]; 2.5 and 5 μM, 4 days in culture, 100 μM 8-Br-cAMP) was “near complete absence of cysts”, the “effect on kidney growth” value ([2]; in culture medium) was “did not affect kidney growth” and the IC50 [3] was under 1000 nM.

From patent US8609661B2, “Pyrimido-pyrrolo-quinoxalinedione inhibitors of cystic fibrosis transmembrane conductance regulator protein and uses therefor” (The Regents of the University of California, priority 2009, dated 2013)
